Experiments:
[1] = test system: powdery mildew fungus (Blumeria graminis); experiment: Test Example 1: controlling effect by seed dressing against wheat powdery mildew; format: in vivo; settings: 0.15% active ingredient based on weight of dry seeds, inoculated 25 days after sowing, investigated 7 days after inoculation
Text: (§1) Seeds of wheat (cultivar: chihoku komugi) and a wettable powder prepared according to Formulation Example were placed in a vinyl bag, followed by adding thereto a small volume of water, and they were mixed to conduct seed dressing. On the day after this treatment, the seeds sowed in a plastic pot of 10 cm diameter, and cultivated in a greenhouse. Twenty five days after sowing, the seedlings thus obtained were inoculated with powdery mildew fungus (Blumeria graminis) by sprinkling. Seven days after inoculation, the seedlings were investigated and infection index was estimated according to the criterion shown below, after which the control efficacy (%) was calculated. In this occasion, infection index on the untreated plot was 8.0. As comparative examples, the following compounds described in JP-A-2001-10909 were evaluated. • I: 3′-chloro-4,4′-dimethyl-1,2,3-thiadiazole-5-carboxanilide • II: benzyl 4-isopropyl-1,2,3-thiadiazole-5-carboxylate • III: methyl 4-cyclopropyl-1,2,3-thiadiazole-5-carboxylate • IV: 4-cyclopropyl-1,2,3-thiadiazole-5-carboxylic acid Infection Index • 0: No infection. • 0.5: Lesion area percentage: less than 10% • 1: Lesion area percentage; 10 to less than 20% • 2: Lesion area percentage; 20 to less than 30% • 3: Lesion area percentage; 30 to less than 40% • 4: Lesion area percentage; 40 to less than 50% • 5: Lesion area percentage; 50 to less than 60% • 6: Lesion area percentage; 60 to less than 70% • 7: Lesion area percentage; 70 to less than 80% • 8: Lesion area percentage; 80 to less than 90% • 9: Lesion area percentage; 90 to less than 100% • 10: Lesion area percentage; 100% Control efficacy (%)={1-(infection index on treated plot/infection index on untreated plot)}×100 Rank of Control Efficacy • A: Control efficacy 100-90% • B: Control efficacy 89-80% • C: Control efficacy 79-60% • D: Control efficacy 59-0%

[2] = test system: powdery mildew fungus (Blumeria graminis); experiment: Test Example 2: controlling effect by seed dressing against wheat powdery mildew, long-lasting effect; format: in vivo; settings: 0.15% active ingredient based on weight of dry seeds, inoculated 50 days after sowing, investigated 7 days after inoculation
Text: as §1
Seeds of wheat (cultivar: Chihoku Komugi) and a wettable powder prepared according to Formulation Example were placed in a vinyl bag, followed by adding thereto a small volume of water, and they were mixed to conduct seed dressing. On the day after this treatment, the seeds sowed in a plastic pot of 10 cm diameter, and cultivated in a greenhouse. Fifty days after sowing, the seedlings thus obtained were inoculated with powdery mildew fungus (Blumeria graminis) by sprinkling. Seven days after inoculation, the seedlings were investigated and infection index was estimated according to the criterion shown below, after which the control efficacy (%) was calculated. In this occasion, infection index on the untreated plot was 8.0. As comparative examples, the above-described compounds I, II, III and IV were evaluated.

SMILES	Rank of control efficacy [1]	Rank of control efficacy [2]
O=C(NCc1ccc(Oc2ccc(C(F)(F)F)cc2)cc1)c1snnc1C1CC1 [1-66]	B or more	
COc1ccc(NC(=O)c2snnc2C2CC2)c(C)c1 [1-156]	B or more	B or more
COc1cc(CNC(=O)c2snnc2C2CC2)cc(OC)c1 [1-168]	B or more	
O=C(NS(=O)(=O)c1ccccc1Cl)c1snnc1C1CC1 [1-158]	B or more	
Cc1ccc(NC(=S)c2snnc2C2CC2)cc1Cl [1-143, 3′-chloro-4-cyclopropyl-4′-methyl-1,2,3-thiadiazole-5-thiocarboxamilide]	B or more	B or more
O=C(NCc1cnc(Cl)s1)c1snnc1C1CC1 [1-185]	B or more	
O=c1oc(-c2snnc2C2CC2)nc2ccccc12 [2-1, 2-(4-cyclopropyl-1,2,3-thiadiazol-5-yl)-4-H-3,1-benzoxazin-4-one]	B or more	
Cc1cccc(C)c1N(C(=O)c1snnc1C1CC1)C(=O)c1snnc1C1CC1 [1-153]	B or more	
COc1ccc(NC(=O)c2snnc2C2CC2)cc1OC [1-97]	B or more	B or more
O=C(Nc1nc(-c2ccccc2)cs1)c1snnc1C1CC1 [1-170]	B or more	B or more
O=C(Nc1nc2ccccc2s1)c1snnc1C1CC1 [1-111]	B or more	B or more
Cc1cc(C)nc(NC(=O)c2snnc2C2CC2)n1 [1-177]	B or more	B or more
Cc1nc(-c2cccnc2NC(=O)c2snnc2C2CC2)no1 [1-183]	B or more	B or more
COc1ccccc1COC(=O)c1snnc1C1CC1 [1-16]	B or more	B or more
O=C(NOCc1ccccc1)c1snnc1C1CC1 [1-113]	B or more	B or more
Cc1cccc(C)c1NC(=O)c1snnc1C1CC1 [1-151]	B or more	
Cc1ccc(C)c(CNC(=O)c2snnc2C2CC2)c1 [1-163]	B or more	
CN(C)c1ccncc1.O=C(Nc1nc2ccc(Cl)cc2s1)c1snnc1C1CC1 [1-179]	B or more	B or more
COC(c1ccc(NC(=O)c2snnc2C2CC2)cc1OC(C)C)(C(F)(F)F)C(F)(F)F [1-103]	B or more	
CS(=O)(=O)NC(=O)c1snnc1C1CC1 [1-120]	B or more	
O=C(Nc1nc2ccc(Cl)cc2s1)c1snnc1C1CC1 [1-178]	B or more	B or more

SMILES	Rank of control efficacy [1]	Rank of control efficacy [2]
COc1cc(OC)nc(NC(=O)c2snnc2C2CC2)n1 [1-175]	B or more	B or more
CNC(=O)c1ccccc1NC(=O)c1snnc1C1CC1 [1-189]	B or more	B or more
Cc1nsc(NC(=O)c2snnc2C2CC2)c1Br [1-174]	B or more	
COc1ccc(C(C)OC(=O)c2snnc2C2CC2)cc1 (stereo not drawn) [1-50]	B or more	B or more
C=CCNC(=O)c1snnc1C1CC1 [1-145]	B or more	B or more
O=C(NCc1ccc(OCC(F)(F)F)cc1)c1snnc1C1CC1 [1-68]	B or more	B or more
COc1cc(C)nc(NC(=O)c2snnc2C2CC2)n1 [1-176]	B or more	B or more
CCOC(=O)c1csc(NC(=O)c2snnc2C2CC2)n1 [1-169]	B or more	B or more
Cc1ccc(C(C)OC(=O)c2snnc2C2CC2)cc1 (stereo not drawn) [1-47]	B or more	
Cc1nc(-c2ccccc2NC(=O)c2snnc2C2CC2)no1 [1-182]	B or more	
Cc1ccc(Oc2ccc(CNC(=O)c3snnc3C3CC3)cc2)cc1 [1-65]	B or more	
N#Cc1snnc1C1CC1 [3-1, 4-cyclopropyl-1,2,3-thiadiazole-5-carbonitrile]	B or more	B or more
COc1ccc(OC)c(CNC(=O)c2snnc2C2CC2)c1 [1-167]	B or more	B or more
CN(Cc1ccccc1)C(=O)c1snnc1C1CC1 [1-82]	B or more	B or more
O=C(Nc1cccc2nnsc12)c1snnc1C1CC1 [1-184]	B or more	B or more
CC(C)(C)OC(=O)c1ccc(COC(=O)c2snnc2C2CC2)cc1 [1-25]	B or more	
Cc1ccc(COC(=O)c2snnc2C2CC2)cc1 [1-15]	B or more	B or more
COc1ccc(COC(=O)c2snnc2C2CC2)cc1 [1-18]	B or more	B or more
O=C(OCc1ccccc1Cl)c1snnc1C1CC1 [1-10, (2-chlorobenzyl)4-cyclopropyl-1,2,3-thiadiazole-5-carboxylate]	B or more	B or more
COc1ccc(CNC(=O)c2snnc2C2CC2)cc1 [1-62]	B or more	B or more
COc1ccc(NC(=S)c2snnc2C2CC2)c(OC)c1 [1-144]	B or more	B or more

SMILES	Rank of control efficacy [1]	Rank of control efficacy [2]
Cc1ccccc1COC(=O)c1snnc1C1CC1 [1-13]	B or more	B or more
Cc1ccc(CNC(=O)c2snnc2C2CC2)cc1 [1-59]	B or more	
O=C(NS(=O)(=O)c1ccc(Cl)cc1)c1snnc1C1CC1 [1-157]	B or more	
O=C(OCc1ccc(Cl)cc1Cl)c1snnc1C1CC1 [1-26]	B or more	
COc1ccc2nc(NC(=O)c3snnc3C3CC3)sc2c1 [1-180]	B or more	
CC(C)c1nnsc1C(=O)OCc1ccccc1 [II, benzyl 4-isopropyl-1,2,3-thiadiazole-5-carboxylate, reference compound]	C (Control efficacy 79-60%)	
CCOC(=O)c1sc(NC(=O)c2snnc2C2CC2)nc1C [1-173]	B or more	B or more
Cc1ccc(CNC(=O)c2snnc2C2CC2)c(C)c1 [1-162]	B or more	
CSc1ccccc1NC(=O)c1snnc1C1CC1 [1-190]	B or more	B or more
COc1ccc(OC)c(NC(=O)c2snnc2C2CC2)c1 [1-155]	B or more	B or more
O=C(NCc1ccc(Cl)cc1Cl)c1snnc1C1CC1 [1-164]	B or more	
CC(OC(=O)c1snnc1C1CC1)c1ccccc1 (stereo not drawn) [1-41]	B or more	B or more
O=C(NCc1ccc(Cl)cc1)c1snnc1C1CC1 [1-56]	B or more	
O=C(Nc1cccc2c1C(=O)OC2)c1snnc1C1CC1 [1-186]	B or more	
CCc1cccc(CC)c1NC(=O)c1snnc1C1CC1 [1-152]	B or more	
CN(C)c1ccncc1.COc1ccc2nc(NC(=O)c3snnc3C3CC3)sc2c1 [1-181]	B or more	
O=C(Nc1nnc(C(F)(F)F)s1)c1snnc1C1CC1 [1-112]	B or more	B or more
O=C(NS(=O)(=O)C(F)(F)F)c1snnc1C1CC1 [1-122]	B or more	
CCc1cccc(CC)c1N(C(=O)c1snnc1C1CC1)C(=O)c1snnc1C1CC1 [1-154]	B or more	
COc1cccc(CNC(=O)c2snnc2C2CC2)c1OC [1-165]	B or more	B or more

— patent US7786040B2, “4-cyclopropyl-1,2,3,-thiadiazole compound, agrohorticultural plant disease controlling agent and method of using the same” (Nihon Nohyaku Co., Ltd., priority 2005, dated 2010)
